Structures are written as SMILES.

The target of assay [1] is Serine/threonine-protein kinase PLK1 (Homo sapiens, UniProt P53350). Briefly: Selectivity interaction (Kinase panel (Z-LYTE Assay)) EUB0001632a PLK1. To be noted: at 10 µM.
Assay [2] addresses Serine/threonine-protein kinase SIK3 (Homo sapiens) (UniProt Q9Y2K2). Briefly: Selectivity interaction (KinomeScan (DiscoverX)) EUB0000607a SIK3. Conditions: at 10 µM.
The target of assay [3] is Death-associated protein kinase 3 (Homo sapiens) (UniProt O43293). To be noted: at 10 µM.
Sequence of Death-associated protein kinase 3 (Homo sapiens) (O43293 whole entry, looked up): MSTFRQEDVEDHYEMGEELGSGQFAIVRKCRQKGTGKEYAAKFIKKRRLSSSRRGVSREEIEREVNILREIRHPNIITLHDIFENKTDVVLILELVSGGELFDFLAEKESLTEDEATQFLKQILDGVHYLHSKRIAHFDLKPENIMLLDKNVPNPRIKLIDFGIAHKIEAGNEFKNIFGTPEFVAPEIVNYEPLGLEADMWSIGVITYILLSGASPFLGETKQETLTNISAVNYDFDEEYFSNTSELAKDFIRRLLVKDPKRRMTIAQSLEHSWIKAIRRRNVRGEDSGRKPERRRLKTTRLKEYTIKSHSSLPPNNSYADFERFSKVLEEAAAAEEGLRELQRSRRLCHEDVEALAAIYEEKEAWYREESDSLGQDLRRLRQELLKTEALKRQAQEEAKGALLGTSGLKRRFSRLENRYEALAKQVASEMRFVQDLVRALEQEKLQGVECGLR
Assay [4] addresses T1, Cyclin-G-associated kinase (Homo sapiens) (UniProt O14976).
T1 sequence (whole entry): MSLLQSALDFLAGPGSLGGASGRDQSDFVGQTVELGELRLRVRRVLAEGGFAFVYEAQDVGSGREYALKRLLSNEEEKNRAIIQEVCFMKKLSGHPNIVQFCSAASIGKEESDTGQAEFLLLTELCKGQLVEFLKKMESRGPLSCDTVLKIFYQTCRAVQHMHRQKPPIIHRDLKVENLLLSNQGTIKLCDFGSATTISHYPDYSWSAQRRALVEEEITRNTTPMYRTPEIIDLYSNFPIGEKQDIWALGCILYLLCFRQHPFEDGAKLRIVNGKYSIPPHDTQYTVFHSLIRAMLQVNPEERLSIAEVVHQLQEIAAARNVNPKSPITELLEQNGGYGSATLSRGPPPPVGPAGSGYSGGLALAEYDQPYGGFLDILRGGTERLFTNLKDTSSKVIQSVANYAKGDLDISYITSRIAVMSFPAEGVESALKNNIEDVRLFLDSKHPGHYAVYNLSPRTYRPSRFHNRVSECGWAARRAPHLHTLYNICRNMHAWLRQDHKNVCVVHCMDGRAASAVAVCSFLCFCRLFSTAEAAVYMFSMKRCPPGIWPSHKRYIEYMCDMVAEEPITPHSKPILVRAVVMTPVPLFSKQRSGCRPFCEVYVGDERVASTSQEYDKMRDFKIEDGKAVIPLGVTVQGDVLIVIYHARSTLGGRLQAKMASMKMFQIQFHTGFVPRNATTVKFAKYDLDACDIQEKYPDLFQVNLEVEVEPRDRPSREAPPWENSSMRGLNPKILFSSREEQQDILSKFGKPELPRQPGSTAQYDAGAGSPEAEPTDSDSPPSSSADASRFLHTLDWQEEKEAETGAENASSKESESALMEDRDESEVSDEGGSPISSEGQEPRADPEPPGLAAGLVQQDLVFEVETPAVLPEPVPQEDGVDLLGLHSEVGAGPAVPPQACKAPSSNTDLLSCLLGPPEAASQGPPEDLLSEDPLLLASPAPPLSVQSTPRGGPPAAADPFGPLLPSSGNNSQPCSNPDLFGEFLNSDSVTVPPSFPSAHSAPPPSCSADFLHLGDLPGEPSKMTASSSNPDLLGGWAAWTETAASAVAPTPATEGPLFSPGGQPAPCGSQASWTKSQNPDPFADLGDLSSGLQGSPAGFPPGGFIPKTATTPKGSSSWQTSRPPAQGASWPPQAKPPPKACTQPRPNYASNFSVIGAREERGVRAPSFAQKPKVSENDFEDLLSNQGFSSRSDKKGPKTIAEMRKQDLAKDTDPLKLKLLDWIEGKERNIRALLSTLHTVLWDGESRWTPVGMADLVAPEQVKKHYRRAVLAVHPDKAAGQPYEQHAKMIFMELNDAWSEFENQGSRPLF
Briefly: Selectivity interaction (Kinase panel (DSF assay)) EUB0001559a GAK.

The target of assay [5] is T2, Glycogen synthase kinase-3 alpha (Homo sapiens, UniProt P49840). Briefly: Selectivity interaction (KinomeScan (DiscoverX)) EUB0000045b GSK3A.
T2 sequence (P49840 2-483 limits assumed): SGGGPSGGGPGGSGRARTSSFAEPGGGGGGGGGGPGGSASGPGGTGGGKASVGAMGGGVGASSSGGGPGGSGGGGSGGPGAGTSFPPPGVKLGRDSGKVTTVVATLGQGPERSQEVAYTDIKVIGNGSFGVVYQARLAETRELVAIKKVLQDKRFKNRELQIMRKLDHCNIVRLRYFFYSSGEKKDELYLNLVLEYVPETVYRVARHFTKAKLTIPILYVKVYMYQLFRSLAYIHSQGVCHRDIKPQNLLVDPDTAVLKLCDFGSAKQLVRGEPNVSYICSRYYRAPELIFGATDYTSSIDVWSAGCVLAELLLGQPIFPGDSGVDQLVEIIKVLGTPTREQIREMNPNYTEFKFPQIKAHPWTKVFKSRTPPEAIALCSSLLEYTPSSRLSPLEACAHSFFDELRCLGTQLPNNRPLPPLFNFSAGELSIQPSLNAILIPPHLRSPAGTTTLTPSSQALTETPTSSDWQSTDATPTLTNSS
The target of assay [6] is T2, Glycogen synthase kinase-3 alpha. Briefly: Selectivity interaction (KinomeScan (DiscoverX)) EUB0001049a GSK3A. To be noted: at 1 µM.
Assay [7] addresses T3, Serine/threonine-protein kinase TBK1 (Homo sapiens) (UniProt Q9UHD2).
T3 sequence (whole entry): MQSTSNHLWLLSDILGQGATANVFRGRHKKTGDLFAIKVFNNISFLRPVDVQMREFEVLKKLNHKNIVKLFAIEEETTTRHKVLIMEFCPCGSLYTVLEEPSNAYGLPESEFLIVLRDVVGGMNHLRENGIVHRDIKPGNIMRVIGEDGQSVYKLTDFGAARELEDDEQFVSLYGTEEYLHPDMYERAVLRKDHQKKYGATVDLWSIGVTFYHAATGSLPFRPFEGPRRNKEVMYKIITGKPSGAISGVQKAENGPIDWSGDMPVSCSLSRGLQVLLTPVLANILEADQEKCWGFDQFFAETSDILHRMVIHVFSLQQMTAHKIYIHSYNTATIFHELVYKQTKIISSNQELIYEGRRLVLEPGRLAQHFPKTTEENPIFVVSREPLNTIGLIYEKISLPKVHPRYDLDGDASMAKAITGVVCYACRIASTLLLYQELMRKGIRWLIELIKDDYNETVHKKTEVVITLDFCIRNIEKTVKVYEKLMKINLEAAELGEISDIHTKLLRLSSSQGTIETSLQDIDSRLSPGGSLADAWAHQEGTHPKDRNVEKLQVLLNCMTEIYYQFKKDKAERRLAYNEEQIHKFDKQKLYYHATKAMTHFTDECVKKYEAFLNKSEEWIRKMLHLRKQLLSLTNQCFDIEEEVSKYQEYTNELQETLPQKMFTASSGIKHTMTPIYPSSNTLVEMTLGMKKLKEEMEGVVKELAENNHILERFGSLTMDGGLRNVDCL
Kind of assay: Selectivity interaction (KinomeScan (DiscoverX)) EUB0000229b TBK1. Conditions: at 10 µM.

Assay [8] concerns the target Cyclin-dependent kinase 4 (Homo sapiens, UniProt P11802). Briefly: Selectivity interaction (KinomeScan (DiscoverX)) EUB0000229b CDK4. To be noted: at 10 µM.

Sequence of Serine/threonine-protein kinase PLK1 (P53350 whole entry): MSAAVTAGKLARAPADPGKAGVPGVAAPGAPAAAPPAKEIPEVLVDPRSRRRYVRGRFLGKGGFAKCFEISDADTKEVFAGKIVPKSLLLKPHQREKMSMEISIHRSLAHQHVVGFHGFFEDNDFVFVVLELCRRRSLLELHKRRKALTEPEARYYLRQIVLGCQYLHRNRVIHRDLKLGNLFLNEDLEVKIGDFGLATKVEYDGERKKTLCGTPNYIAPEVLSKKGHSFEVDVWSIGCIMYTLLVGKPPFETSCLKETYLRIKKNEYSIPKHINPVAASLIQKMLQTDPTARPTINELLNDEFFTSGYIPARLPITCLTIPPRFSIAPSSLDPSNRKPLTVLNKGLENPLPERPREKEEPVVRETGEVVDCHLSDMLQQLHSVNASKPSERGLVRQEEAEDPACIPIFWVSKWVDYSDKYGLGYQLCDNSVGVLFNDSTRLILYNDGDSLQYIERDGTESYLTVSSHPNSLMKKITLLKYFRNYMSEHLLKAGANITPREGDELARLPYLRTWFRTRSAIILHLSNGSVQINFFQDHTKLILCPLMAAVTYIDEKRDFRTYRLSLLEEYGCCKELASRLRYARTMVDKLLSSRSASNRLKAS
Sequence of Cyclin-dependent kinase 4 (P11802 whole entry): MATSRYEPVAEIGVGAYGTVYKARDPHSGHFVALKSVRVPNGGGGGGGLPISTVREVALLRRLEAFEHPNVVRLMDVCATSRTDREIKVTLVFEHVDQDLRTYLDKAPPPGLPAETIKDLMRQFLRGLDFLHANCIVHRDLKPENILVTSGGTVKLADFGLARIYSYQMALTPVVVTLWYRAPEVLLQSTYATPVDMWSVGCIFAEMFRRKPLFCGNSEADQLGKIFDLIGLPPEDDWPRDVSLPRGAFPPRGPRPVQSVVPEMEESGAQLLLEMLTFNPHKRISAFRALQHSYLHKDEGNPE
Sequence of Serine/threonine-protein kinase SIK3 (Homo sapiens) (Q9Y2K2 whole entry, looked up): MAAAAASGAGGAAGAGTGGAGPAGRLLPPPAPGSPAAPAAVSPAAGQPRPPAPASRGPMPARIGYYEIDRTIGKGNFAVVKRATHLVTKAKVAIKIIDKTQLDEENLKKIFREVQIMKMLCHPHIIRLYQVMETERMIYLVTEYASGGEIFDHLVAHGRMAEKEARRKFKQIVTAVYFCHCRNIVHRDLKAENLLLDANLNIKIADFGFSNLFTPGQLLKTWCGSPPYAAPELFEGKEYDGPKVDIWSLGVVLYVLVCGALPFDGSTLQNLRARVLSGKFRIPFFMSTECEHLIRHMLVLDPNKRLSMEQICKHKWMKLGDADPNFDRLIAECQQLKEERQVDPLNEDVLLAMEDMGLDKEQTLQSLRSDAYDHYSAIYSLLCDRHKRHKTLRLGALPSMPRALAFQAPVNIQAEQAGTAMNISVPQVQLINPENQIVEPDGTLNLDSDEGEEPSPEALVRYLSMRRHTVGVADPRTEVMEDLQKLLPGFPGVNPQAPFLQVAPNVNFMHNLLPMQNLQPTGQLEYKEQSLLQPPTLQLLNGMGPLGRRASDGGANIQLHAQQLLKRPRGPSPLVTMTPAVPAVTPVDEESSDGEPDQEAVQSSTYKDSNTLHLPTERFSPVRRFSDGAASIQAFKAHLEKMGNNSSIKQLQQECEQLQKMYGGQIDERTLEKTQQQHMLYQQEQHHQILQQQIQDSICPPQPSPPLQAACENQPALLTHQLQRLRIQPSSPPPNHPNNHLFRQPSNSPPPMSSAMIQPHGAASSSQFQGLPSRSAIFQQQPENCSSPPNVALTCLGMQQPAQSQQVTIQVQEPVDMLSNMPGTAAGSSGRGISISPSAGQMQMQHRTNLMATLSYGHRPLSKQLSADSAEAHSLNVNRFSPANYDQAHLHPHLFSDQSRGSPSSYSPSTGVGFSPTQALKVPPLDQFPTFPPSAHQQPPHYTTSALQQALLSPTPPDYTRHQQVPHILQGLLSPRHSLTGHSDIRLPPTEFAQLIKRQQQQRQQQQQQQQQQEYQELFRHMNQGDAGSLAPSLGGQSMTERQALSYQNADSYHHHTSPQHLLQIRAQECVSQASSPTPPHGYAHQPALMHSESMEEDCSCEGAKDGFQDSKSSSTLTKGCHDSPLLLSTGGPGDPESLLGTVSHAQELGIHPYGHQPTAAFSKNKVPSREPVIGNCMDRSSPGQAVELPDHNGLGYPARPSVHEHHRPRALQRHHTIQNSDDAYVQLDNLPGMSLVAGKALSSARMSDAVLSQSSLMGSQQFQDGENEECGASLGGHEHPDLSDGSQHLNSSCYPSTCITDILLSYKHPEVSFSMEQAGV

In assay [1], `Cn1cc(-n2cnc3c(NCc4nc5cc(Cl)c(Cl)cc5[nH]4)nc(N4CCOCC4)nc32)cn1` returned a % of control of 1.25%.

Take `CNC(=O)Nc1ccc(-c2nc(N3CC4CCC(C3)O4)c3cnn(C4CCC5(CC4)OCCO5)c3n2)cc1`: in assay [2], the % of control was determined as 35%. For `Cc1cc([C@@H](C)Nc2ccccc2C(=O)O)c2nc(N3CCOCC3)cc(=O)n2c1` [AZD-6482], in assay [3], the % of control was 100%.

Compound `CN(C(=O)c1cnn2cccnc12)c1cc2c(cc1N1CCOCC1)C(=O)N(C[C@@H](F)C(C)(C)O)C2` had a dTM in assay [4] of 0.1 K. In the case of `C=CC(=O)Nc1cc(-n2c(=O)ccc3cnc4ccc(-c5ccc(NS(C)(=O)=O)cc5)cc4c32)ccc1C`, the % of control in assay [5] (at 1 µM) and in assay [5] (at 10 µM) was 100% throughout. `COc1cc(Nc2nc(C)cc(-c3cnn4nc(OC)ccc34)n2)cc(C(F)(F)F)c1` came in with a % of control in assay [6] of 100%.

Consider `COc1cc(N(C)c2ccnc3ccc(C(F)(F)F)cc23)cc(OC)c1OC`, for which the % binding came out at 72% in assay [7] and 100% in assay [8].
